Usually solubility stands for how much of the substance goes into solution per volume. A low value points to little dissolved substance.

The results in this text go back to patent publication US20220401329A1, “ARTIFICIAL MELANIN NANOPARTICLES AND PRECURSOR MOLECULES AS HAIR DYES” (Northwestern University, priority 2019, published 2022).

Data set [1] has as its system Agaricus bisporus tyrosinase (EC 1.14.18.1). The data set can be described thus: Monomer consumption in tyrosinase-mediated oxidation, by RP-HPLC. The data set is classed as biochemical. The conditions noted are these: 84 nM tyrosinase; for monomer consumption (%) after 2 h reaction: 0.5 mg/mL monomer in water. The protocol:
The use of chemoenzymatic oxidative polymerization to produce multifunctional hair coatings has two main advantages. First, it is performed at neutral pH, avoiding the need for basic additives such as NH4OH. Second, it allows the use of substrates other than DA, such as phenolamines and amino acids. Mushroom tyrosinase has recently been used to promote polydopamine-based film deposition^40 and nanoparticles formation^41 starting from dopamine as well as natural phenolamines. […] As previously reported,^40 a 6 h reaction time was necessary to obtain effective darkening of the reaction solutions, performed either in water or Dulbecco's phosphate-buffered saline (DPBS) buffer (FIGS. 23A and 29). Across all tested monomers (L-Tyr, TA, DA), color darkening was associated with an initial increase, then decrease in UV-Vis absorption at 310 nm and 475 nm (FIGS. 23B and 30A-30D). A decrease in these signals, deriving from quinone and cyclic amine species respectively,^40 after the 6 h reaction is indicative of successful polymerization and deposition.^40 We next performed these reactions at 35° C. and at neutral pH, optimal reaction parameters for mushroom tyrosinase.^42 This led to a faster process with solutions turning brown/black several minutes after reaction initiation (FIG. 23A). […] This was confirmed by the rapid disappearance of the peak at 310 nm and 480 nm, as monitored by UV-Vis (FIGS. 23B and 30A-30D). […] (FIGS. 23C and 31A-31B and Table 2). At five-fold higher concentration of 420 nM (50 U/mL) we observed almost complete monomer consumption (FIG. 23D). Monitoring Monomer Consumption via RP-HPLC studies. Monomer consumption after a 2 h reaction was determined by RP-HPLC. Reactions were performed either at rt or at 35° C. and using either 84 nM or […] (five fold) tyrosinase.

The nature of data set [2]: Solubility of monomers in water. The class given is physicochemical.

Marks after values point to notes of the source that are not given here.

In the case of `COC(=O)[C@@H](N)Cc1ccc(O)cc1` [L-Tyr-OMe, L-tyrosine methyl ester], the “substrate for mushroom tyrosinase” value in data set [1] (0.5 mg/mL, 2 hours at 35° C. (FIG. 33A)) is recorded as “good substrate”. In data set [2], this compound yielded a solubility not below 26 mM.

On to `NCCc1ccc(O)cc1` [TA, tyramine], for which the “monomer consumption (%) after 2 h reaction” value (from here on “monomer consumption (%)”) was 86% in data set [1] (35° C.) and 76% in data set [1] (rt).

Consider `N[C@@H](Cc1ccc(O)cc1)C(=O)O` [L-Tyr, L-tyrosine], for which the results for the “monomer consumption (%)” value in data set [1] (35° C.) and in data set [1] (rt) were 86% and 55%*, respectively.

As to `NCCc1ccc(O)c(O)c1` [DA, dopamine], the “monomer consumption (%)” value amounted to 91% in data set [1] (35° C.) and 65% in data set [1] (rt).
